Reference: ChEMBL document CHEMBL1147860, “ABC synthesis and antitumor activity of a series of Annonaceous acetogenin analogs with a threo, trans, threo, trans, threo-bis-tetrahydrofuran core unit” (Bioorg Med Chem Lett, 2007)

What follows are compounds tested on HCT-116 (assay: Cytotoxicity against HCT116 cells). Details: Homo sapiens.
Assay type: functional, cell-based

SMILES	IC50 [nM]
C[C@H]1C=C(C[C@H](O)CCCCCCCCCC[C@@H](O)[C@H]2CC[C@H]([C@H]3CC[C@H]([C@H](O)CCCCCCO)O3)O2)C(=O)O1	3.8
C[C@H]1C=C(C[C@H](O)CCCCCCCCCC[C@@H](O)[C@H]2CC[C@H]([C@H]3CC[C@H]([C@H](O)CCCCCCCCCCCO)O3)O2)C(=O)O1	0.6
CCCCCCCC[C@@H](O)[C@H]1CC[C@H]([C@H]2CC[C@H]([C@H](O)CCCCCCCCCC[C@@H](O)CC3=C[C@H](C)OC3=O)O2)O1	0.5
C[C@H]1C=C(CCCCCCCCCCC[C@@H](O)[C@H]2CC[C@H]([C@H]3CC[C@H]([C@H](O)CCCCCCCCCCCO)O3)O2)C(=O)O1	35
COCOCCCCCC[C@@H](O)[C@H]1CC[C@H]([C@H]2CC[C@H]([C@H](O)CCCCCCCCCC[C@@H](O)CC3=C[C@H](C)OC3=O)O2)O1	16
CCCCCCCCCCC(O)C1CCC(C2CCC(C(O)CCCCCCCC[C@H](O)CC3=C[C@@H](C)OC3=O)O2)O1 (stereo partly specified) [ASIMICIN]	8.8
